Test results taken from ChEMBL document CHEMBL1135216, “New 2-(1-adamantylcarbonyl)pyridine and 1-acetyladamantane thiosemicarbazones-thiocarbonohydrazones: cell growth inhibitory, antiviral and antimicrobial activity evaluation” (Bioorg Med Chem Lett, 2002).
≈ marks a conversion by molar mass, not a printed value.

Key:
E6SM [1] = experiment: Tested for cytotoxic activity in human embryonic skin muscle fibroblast (E6SM); type: functional; settings: Muscle tissue
HEL [2] = experiment: Tested for antiviral activity against thymidine kinase deficient Varicella zoster virus in human embryonic lung fibroblasts; type: functional
MOLT-4 [3] = experiment: Tested for the inhibitory concentration against cell growth of human leukemic cell line MOLT-4; type: functional
K562 [4] = experiment: Tested for the inhibitory concentration against cell growth of K562 chronic myeloid leukemia using MTT assay; type: functional; settings: Homo sapiens
HuT78 [5] = experiment: Tested for the inhibitory concentration against cell growth of HuT78 T lymphoma using MTT assay; type: functional; settings: Homo sapiens
CCRF-CEM [6] = experiment: Tested for the inhibitory concentration against cell growth of Tcell leukemic cell line CCRF-CEM using MTT assay; type: functional; settings: Homo sapiens
E6SM [7] = experiment: Antiviral activity against thymidine kinase-deficient (TK-HSV-1)virus in E6SM cell line(human embryonic skin-muscle fibroblasts); type: functional
Vero [8] = experiment: Tested for antiviral activity against coxsackie B-4 virus in African green monkey kidney cell (Vero); type: functional; settings: Chlorocebus sabaeus
Vero [9] = experiment: Tested for antiviral activity against parainfluenza virus in african green monkey kidney cell (Vero); type: functional; settings: Chlorocebus sabaeus
E6SM [10] = experiment: Tested for antiviral activity against thymidine kinase-deficient (TK-HSV-2G) virus in E6SM cell line(human embryonic skin-muscle fibroblasts)
E6SM [11] = experiment: Tested for antiviral activity against VSV-virus in human embryonic skin muscle fibroblasts; type: functional; settings: Muscle tissue
HeLa [12] = experiment: Tested for antiviral activity against coxsackie-B4 virus in human epithelial cell line; type: functional
CCRF-CEM [13] = experiment: Tested for the concentration required to reduce the viability of leukemia cells by 50% against cell growth of T cell leukemia cell line CCRF-CEM using MTT assay; type: functional; settings: Homo sapiens
Escherichia coli = experiment: Tested for the antimicrobial activity against Escherichia coli ATCC 25922; type: functional
Vero [14] = experiment: Tested for antiviral activity against Sindbis virus in African green monkey kidney cell (Vero); type: functional; settings: Chlorocebus sabaeus
MT4 [15] = experiment: Tested for cytotoxic concentration required to reduce the viability of MT-4 cells by 50%; type: functional, cell-based; settings: Homo sapiens, read-out: EC50 (the source's name)
HEL [16] = experiment: Tested for antiviral activity against thymidine kinase wild type Varicella zoster virus in human embryonic lung fibroblast; type: functional
MOLT-4 [17] = experiment: Tested for the concentration required to reduce the viability of leukemia cells by 50% against cell growth of T cell leukemia cell line MOLT-4 using MTT assay; type: functional; settings: Homo sapiens
HEL [18] = experiment: Tested for antiviral activity against human cytomegalovirus (AD-169) in human embryonic lung fibroblasts; type: functional
MOLT-4 [19] = experiment: Tested for the inhibitory concentration against cell growth of Tcell leukemic cell line MOLT-4 using MTT assay; type: functional; settings: Homo sapiens
HL-60 [20] = experiment: Tested for the inhibitory concentration against cell growth of HL60 acute myeloid leukemia using MTT assay; type: functional; settings: Homo sapiens
RPMI-8226 [21] = experiment: Tested for the inhibitory concentration against cell growth of human leukemic cell line RPMI8226; type: functional
RPMI-8226 [22] = experiment: Tested for the inhibitory concentration against cell growth of […] multiple myeloma using MTT assay; type: functional; settings: Homo sapiens
MT4 [23] = experiment: Tested for effective concentration required to protect MT-4 cells against the cytopathicity of HIV-2(ROD); type: functional, cell-based; settings: Homo sapiens
Vero [24] = experiment: Tested for antiviral activity against Reo-1 virus in African green monkey kidney cell (Vero); type: functional; settings: Chlorocebus sabaeus
K562 [25] = experiment: Tested for the inhibitory concentration against cell growth of human leukemic cell line K562; type: functional
HEL [26] = experiment: Tested for cytotoxic activity in human embryonic lung fibroblast (HEL); type: functional
HuT78 [27] = experiment: Tested for the concentration required to reduce the viability of leukemia cells by 50% against cell growth of HuT78 T lymphoma using MTT assay; type: functional; settings: Homo sapiens
E6SM [28] = experiment: The compound was tested for antiviral activity against VSV-virus in human epithelial cells; type: functional
RPMI-8226 [29] = experiment: Tested for the concentration required to reduce the viability of leukemia cells by 50% against cell growth of RPMI8226 multiple myeloma using MTT assay; type: functional; settings: Homo sapiens, read-out: LC50 (the source's name)
HL-60 [30] = experiment: Tested for the concentration required to reduce the viability of leukemia cells by 50% against cell growth of HL60 acute myeloid leukemia using MTT assay; type: functional; settings: Homo sapiens, read-out: LC50 (the source's name)
Klebsiella pneumoniae = experiment: Tested for the antimicrobial activity against Klebsiella pneumoniae ATCC 13883; type: functional
HL-60 [31] = experiment: Tested for the inhibitory concentration against cell growth of human leukemic cell line HL60; type: functional
E6SM [32] = experiment: Tested for antiviral activity against vaccinia virus in human embryonic skin muscle fibroblast; type: functional; settings: Muscle tissue
Vero [33] = experiment: Tested for cytotoxic activity in African green monkey kidney cells (Vero); type: functional; settings: Chlorocebus sabaeus
Staphylococcus hominis = experiment: Tested for the antimicrobial activity against Staphylococcus hominis ATCC 27844; type: functional
HeLa [34] = experiment: Tested for cytotoxic activity in human epithelial cell line (HeLa); type: functional
MT4 [35] = experiment: Tested for effective concentration required to protect MT-4 cells against the cytopathicity of HIV-1(IIIB); type: functional; settings: Homo sapiens, read-out: LC50 (the source's name)
Vero [36] = experiment: Tested for antiviral activity against Punta toro virus in African green monkey kidney cell (Vero); type: functional; settings: Chlorocebus sabaeus
Staphylococcus aureus = experiment: Tested for the antimicrobial activity against Staphylococcus aureus ATCC 6538; type: functional
CCRF-CEM [37] = experiment: Tested for the inhibitory concentration against cell growth of human leukemic cell line CCRF-CEM; type: functional
K562 [38] = experiment: Tested for the concentration required to reduce the viability of leukemia cells by 50% against cell growth of K562 chronic myeloid leukemia using MTT assay; type: functional; settings: Homo sapiens, read-out: LC50 (the source's name)
HuT78 [39] = experiment: Tested for the inhibitory concentration against cell growth of human leukemic cell line HuT78; type: functional
[40] = tested on: Staphylococcus epidermidis; experiment: Tested for the antimicrobial activity against Staphylococcus epidermidis ATCC 12228; type: functional
E6SM [41] = experiment: Tested for antiviral activity against herpes simplex virus type 1(KOS) in E6SM cell line(human embryonic skin-muscle fibroblasts); type: functional

`S=C(N/N=C(/c1ccccn1)C12CC3CC(CC(C3)C1)C2)NNC(=S)c1ccc(Cl)cc1Cl` was tested, and the MCC (E6SM [1]) was 80 µg/mL, the MIC (HEL [2]) was > 2 mg/L and the GI50 (MOLT-4 [3]) was 31.4 µM. For the same compound, the TGI (K562 [4]) was 100 µM, the TGI (HuT78 [5]) was 81 µM and the TGI (CCRF-CEM [6]) was 100 µM. For the same compound, the MIC (E6SM [7]) was > 16 mg/L, the MIC (Vero [8]) was > 3.2 mg/L and the MIC (Vero [9]) was > 3.2 mg/L. The MIC (E6SM [10]) was > 3.2 mg/L, the MIC (E6SM [11]) was > 16 mg/L and the MIC (HeLa [12]) was > 3.2 mg/L. For the same compound, the TGI (CCRF-CEM [13]) was 100 µM, the MIC (Escherichia coli) was > 1880 mg/L and the MIC (Vero [14]) was > 3.2 mg/L. For the same compound, the CC50 (MT4 [15]) was 2.6 µM, the MIC (HEL [16]) was > 2 mg/L and the TGI (MOLT-4 [17]) was 100 µM. For the same compound, the MIC (HEL [18]) was > 2 mg/L, the TGI (MOLT-4 [19]) was 100 µM and the TGI (HL-60 [20]) was 7 µM. The GI50 (RPMI-8226 [21]) was 4.6 µM, the TGI (RPMI-8226 [22]) was 29.5 µM and the EC50 (MT4 [23]) was > 3 µM. For the same compound, the MIC (Vero [24]) was > 3.2 mg/L, the GI50 (K562 [25]) was 100 µM and the MCC (HEL [26]) was 5 µg/mL. For the same compound, the TGI (HuT78 [27]) was 100 µM, the MIC (E6SM [28]) was > 16 mg/L and the CC50 (RPMI-8226 [29]) was 100 µM. For the same compound, the CC50 (HL-60 [30]) was 31.9 µM, the MIC (Klebsiella pneumoniae) was > 1880 mg/L and the GI50 (HL-60 [31]) was 3.6 µM. The MIC (E6SM [32]) was > 16 mg/L, the MCC (Vero [33]) was 16 µg/mL and the MIC (Staphylococcus hominis) was 117 mg/L (≈ 226 µM). The MCC (HeLa [34]) was 16 µg/mL, the EC50 (MT4 [35]) was > 3 µM and the MIC (Vero [36]) was > 3.2 mg/L. The MIC (Staphylococcus aureus) was 117 mg/L (≈ 226 µM), the GI50 (CCRF-CEM [37]) was 66.3 µM and the CC50 (K562 [38]) was 100 µM. For the same compound, the GI50 (HuT78 [39]) was 23 µM, the MIC [40] was 117 mg/L (≈ 226 µM) and the MIC (E6SM [41]) was > 16 mg/L.
In the case of `C/C(=N/N=C(\N)S)C12CC3CC(CC(C3)C1)C2`, the MCC (E6SM [1]) is reported as > 400 µg/mL, the MIC (HEL [2]) is reported as > 2 mg/L and the GI50 (MOLT-4 [3]) is reported as 2.3 µM. The TGI (K562 [4]) was 10.4 µM, the TGI (HuT78 [5]) was 29.1 µM and the TGI (CCRF-CEM [6]) was 55.2 µM. For the same compound, the MIC (E6SM [7]) was > 400 mg/L, the MIC (Vero [8]) was > 80 mg/L and the MIC (Vero [9]) was > 80 mg/L. The MIC (E6SM [10]) was > 80 mg/L, the MIC (E6SM [11]) was > 400 mg/L and the MIC (HeLa [12]) was > 80 mg/L. For the same compound, the TGI (CCRF-CEM [13]) was 86.7 µM, the MIC (Escherichia coli) was > 3980 mg/L and the MIC (Vero [14]) was > 80 mg/L. The CC50 (MT4 [15]) was 7.5 µM, the MIC (HEL [16]) was > 2 mg/L and the TGI (MOLT-4 [17]) was 59.4 µM. The MIC (HEL [18]) was > 2 mg/L, the TGI (MOLT-4 [19]) was 9.3 µM and the TGI (HL-60 [20]) was 24.1 µM. For the same compound, the GI50 (RPMI-8226 [21]) was 7.1 µM, the TGI (RPMI-8226 [22]) was 33.3 µM and the EC50 (MT4 [23]) was > 8 µM. For the same compound, the MIC (Vero [24]) was > 80 mg/L, the GI50 (K562 [25]) was 2.8 µM and the MCC (HEL [26]) was 5 µg/mL. It also gave a TGI (HuT78 [27]) of 83.1 µM, an MIC (E6SM [28]) of 240 mg/L (≈ 955 µM) and a CC50 (RPMI-8226 [29]) of 69.2 µM. For the same compound, the CC50 (HL-60 [30]) was 63.6 µM, the MIC (Klebsiella pneumoniae) was > 3980 mg/L and the GI50 (HL-60 [31]) was 5.2 µM. For the same compound, the MIC (E6SM [32]) was > 400 mg/L, the MCC (Vero [33]) was 400 µg/mL and the MIC (Staphylococcus hominis) was > 3980 mg/L. For the same compound, the MCC (HeLa [34]) was 400 µg/mL, the EC50 (MT4 [35]) was > 8 µM and the MIC (Vero [36]) was > 80 mg/L. The MIC (Staphylococcus aureus) was > 3980 mg/L, the GI50 (CCRF-CEM [37]) was 23.6 µM and the CC50 (K562 [38]) was 62.6 µM. The GI50 (HuT78 [39]) was 2.3 µM, the MIC [40] was > 3980 mg/L and the MIC (E6SM [41]) was 240 mg/L (≈ 955 µM).
